Tests used:
[1] = test system: C. elegans; assay: Nematode trap plate (PASS) olfaction test, chemotaxis index to a volatile substance; type: in vivo, Caenorhabditis elegans
Protocol: (Method for Evaluating Test Result) On the basis of the number of nematodes caught in the fall-in cavity which number has been obtained in the above-described manner, a response of the nematodes is evaluated. In the olfaction test or gustation test for evaluating a response of the nematodes to a chemical substance or the like, it is possible to evaluate the response on the basis of, e.g., a chemotaxis index (it may sometimes be abbreviated as “C.I.”). The chemotaxis index, which is used to evaluate the taxis of the test subject to the chemical substance or the like, is defined by in the following manner. That is, the number of nematodes caught in a control fall-in cavity is subtracted from the number of nematodes caught in a fall-in cavity for the test subject so that a difference is yielded, and the difference is divided by the total number of nematodes caught in all the fall-in cavities. In a case where there exist two or more fall-in cavities for the test subject, the total number of nematodes caught in these fall-in cavities is considered as “the number of nematodes caught in the fall-in cavity for the test subject”. Similarly, in a case where there exist two or more control fall-in cavities, the total number of nematodes caught in these control fall-in cavities is considered as “the number of nematodes caught in the control fall-in cavity”. Specifically, the chemotaxis index (C.I.) can be obtained by the following formula, where Ni is the total number of nematodes caught in the fall-in cavity for the test subject and N2 is the total number of nematodes caught in the control fall-in cavity.
Chemotaxis index (C.I.)=(N1−N2)/(N1+N2).
In the Examples shown below, tests were conducted by using C. elegans as the nematodes, unless otherwise stated. In each of the Examples, a commercially-available circular plastic dish was used as the container of the nematode trap plate. The size of the plastic dish, the capacity (volume) of a solid medium mainly made of an agar, and the number of fall-in cavities to be formed were set as appropriate in consideration of the purpose of the test, the volume of a sample obtained, and the like. In each case, the fall-in cavities were formed in the shape of a cylinder having a diameter of approximately 5 mm. […] The following description will be made by using the names of the plates shown in Table 1 (plate A1, plate A2, plate B1, plate B2, plate B3, plate B4, and plate B5).
First, a plate A1 was produced that included (a) two fall-in cavities 2a formed in a left part of a solid medium so as to be arranged side by side along the outer periphery of the solid medium and (b) two fall-in cavities 2b formed in control positions in a right part of the solid medium in a similar manner to the fall-in cavities 2a. […]
Then, the response was evaluated. […]

[2] = test system: C. elegans; assay: Conventional chemotaxis evaluation method on assay plate with sodium azide (Comparative Example 1); type: in vivo, Caenorhabditis elegans; conditions: Comparative Example 1, conventional method; undiluted solution and test solution with a large dilution factor; three tests
Protocol: As a comparative example, evaluation of a response of nematodes was conducted in accordance with a conventional chemotaxis evaluation method (e.g., Non-Patent Literature 1). […] Similarly to the test in Example 1, an undiluted solution of diacetyl and diluted solutions prepared by diluting diacetyl at five different concentrations were used as test solutions. One drop of the test solution was dripped on each of two positions (test solution spots) on a left half of a circle with a radius of 3 cm about the center of the assay plate. Meanwhile, the buffer solution serving as the control was dripped on each of positions (control spots) that were on a right half of the circle with a radius of 3 cm about the center of the assay plate and that were arranged point symmetrically. […] Based on the captured image of the entire assay plate, an example of which is shown in FIG. 11, the number of nematodes fixed under anesthesia was counted in each of test solution areas extending concentrically from the two test solution spots on the left part and control areas extending concentrically from the two control spots on the right part. […] The response of the nematodes was evaluated with use of the chemotaxis index (C.I.), which was used also in Example 1, assuming that the number of nematodes in the test solution areas was N1 and the number of nematodes in the control areas was N2. […]

[3] = test system: hetero group M of free-living soil nematodes (collected at Ogasawara village, Tokyo, Japan); assay: Nematode trap plate olfaction test with soil nematodes other than C. elegans, group M; type: in vivo; conditions: Example 15, plate A1, 1 mM diluted solution, negative = avoidance
Protocol: (§1) Example 15 was conducted for the purpose of studying applicability of the plate of the present invention to evaluation of a response of nematodes other than C. elegans. Specifically, the test was conducted to examine a response of a hetero group M of free-living soil nematodes (collected at Ogasawara village, Tokyo, Japan) and a hetero group H of free-living soil nematodes (collected at Takayama city, Gifu, Japan) with respect to a volatile substance. A plate A1 identical to that produced in Example 1 was produced. Left fall-in cavities 2a were filled with a test solution, whereas right fall-in cavities 2b were filled with a buffer solution as a control. The test solution used in Example 15 was a diluted solution (1 mM) of vanillin, which is a kind of volatile substance. […] Then, the plate was left at least for an hour under a light-shielded environment. […] The chemotaxis index (C.I.) was obtained in a similar manner to Example 1, and the response of the nematodes was evaluated. […] Note that the tests involving use of the nematode group M and the nematode group H were conducted independently.

[4] = test system: hetero group H of free-living soil nematodes (collected at Takayama city, Gifu, Japan); assay: Nematode trap plate olfaction test with soil nematodes other than C. elegans, group H; type: in vivo; conditions: Example 15, plate A1, 1 mM diluted solution, positive = attraction
Protocol: as §1

Structure (SMILES): CC(=O)C(C)=O [diacetyl]
- Chemotaxis index (C.I.) ([1]; Example 1, plate A1, four other dilution concentrations among six, all three tests, positive = attraction): positive values
- Chemotaxis index (C.I.) ([1]; Example 1, plate A1, two highest concentrations among six (undiluted 11.5 M to 100000-fold dilution), all three tests, negative = escaping): negative values
- Chemotaxis index (C.I.) ([1]; Example 2, plate A2 (solid medium volume twice that of A1), six concentrations, undiluted to 100000-fold, three tests): the same results as in Example 1
- Chemotaxis index (C.I.) [2]: a positive value was obtained in one case, and a negative value was obtained in another case

Structure (SMILES): O=Cc1ccccc1 [benzaldehyde]
- Chemotaxis index (C.I.) ([1]; Example 3, plate B1, each of three dilutions from 10000-fold to 100000-fold of 9.8 M undiluted solution, mean of four tests, maximum 1.0): not less than 0.9

Structure (SMILES): COc1cc(C=O)ccc1O [vanillin]
- Chemotaxis index (C.I.) [3]: negative C.I. value
- Chemotaxis index (C.I.) [4]: positive C.I. value

From patent US20220187274A1, “NEMATODE TRAP PLATE AND USE THEREFOR” (priority 2019, published 2022)
